US9302999B2, “Substituted triazoles as herbicides” (E. I. DU PONT DE NEMOURS AND COMPANY, priority 2012, dated 2016)
Like-named read-outs stand apart in the source and are kept apart here.

Columns and labels:
Assay type in all cases: in vivo
[1] = test system: velvetleaf (Abutilon theophrasti); assay: Test A pre-/postemergence: velvetleaf; conditions: for pest or weed control at 125 g/ha / pest or weed control at 500 g/ha: Abutilon theophrasti, 240 h
Summary of the method: (§1)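 Rating scale 0–100 (100 = complete control), visual, ~10 days after application in the greenhouse. Applications: preemergence directed soil spray; postemergence at 1–2 leaves.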

[2] = test system: large crabgrass (Digitaria sanguinalis); assay: Test C pre-/postemergence: large crabgrass
Summary of the method: (§2)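 Visual injury scored 0–100 (100 = complete control) against untreated controls after 13–15 greenhouse days. Surfactant-containing solvent formulations applied either to soil after sowing (loam/sand) or over 1- to 4-leaf plants, 2–18 cm tall.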

[3] = test system: blackgrass (Alopecurus myosuroides); assay: Test C pre-/postemergence: blackgrass
Summary of the method: as §2

[4] = test system: pigweed (Amaranthus retroflexus); assay: Test C pre-/postemergence: pigweed
Summary of the method: as §2

corn (Zea mays) = assay: Test A pre-/postemergence: corn
Summary of the method: as §1

[5] = test system: ryegrass, Italian (Italian ryegrass, Lolium multiflorum); assay: Test C pre-/postemergence: ryegrass, Italian
Summary of the method: as §2

[6] = test system: galium (catchweed bedstraw, Galium aparine); assay: Test C pre-/postemergence: galium
Summary of the method: as §2

[7] = test system: foxtail, giant (giant foxtail, Setaria faberii); assay: Test C pre-/postemergence: foxtail, giant
Summary of the method: as §2

soybean (Glycine max) = assay: Test C pre-/postemergence: soybean
Summary of the method: as §2

[8] = test system: ragweed (common ragweed, Ambrosia elation); assay: Test C pre-/postemergence: ragweed
Summary of the method: as §2

kochia (Kochia scoparia) = assay: Test C pre-/postemergence: kochia
Summary of the method: as §2

[9] = test system: crabgrass, large (large crabgrass, Digitaria sanguinalis); assay: Test A pre-/postemergence: crabgrass, large; conditions: for pest or weed control at 125 g/ha / pest or weed control at 500 g/ha: Digitaria sanguinalis, 240 h
Summary of the method: as §1

[10] = Postemergence, 31 g ai/ha, scale 0 to 100 (0 no effect, 100 complete control)
[11] = Postemergence, 62 g ai/ha, scale 0 to 100 (0 no effect, 100 complete control)
[12] = Postemergence, 125 g ai/ha, scale 0 to 100, 0 no effect, 100 complete control
[13] = Postemergence, 250 g ai/ha, scale 0 to 100
[14] = Preemergence, 31 g ai/ha, scale of 0 to 100, 0 is no effect, 100 is complete control
[15] = Preemergence, 62 g ai/ha, scale of 0 to 100, 0 is no effect, 100 is complete control
[16] = Preemergence, 125 g ai/ha, scale 0 to 100, 0 no effect, 100 complete control
[17] = Preemergence, 250 g ai/ha, scale 0 to 100, 0 no effect, 100 complete control
[18] = Postemergence, 125 g ai/ha, 0 to 100 scale, 0 is no effect, 100 is complete control
[19] = Postemergence, 500 g ai/ha, visual rating on 0 to 100 scale (0 no effect, 100 complete control), approximately ten days
[20] = Preemergence, 125 g ai/ha, 0 to 100 scale where 0 is no effect and 100 is complete control
[21] = Preemergence, 500 g ai/ha, 0 to 100 scale (0 no effect, 100 complete control)

## Cc1nn(-c2ccc(F)cc2)nc1Oc1ccnc(C(F)(F)F)c1 [Compound 129, 4-[[2-(4-fluorophenyl)-5-methyl-2H-1,2,3-triazol-4-yl]oxy]-2-(trifluoromethyl)pyridine]
[1]; post-emergence, Postemergence, 125 g ai/ha, 0 to 100 scale, 0 is no effect, 100 is complete control, read-out: Velvetleaf plant response rating
  pest or weed control at 125 g/ha: 70%
[1]; post-emergence, Postemergence, 500 g ai/ha, visual rating on 0 to 100 scale (0 no effect, 100 complete control), approximately ten days, read-out: Velvetleaf plant response rating
  pest or weed control at 500 g/ha: 100%
[1]; pre-emergence, Preemergence, 125 g ai/ha, 0 to 100 scale where 0 is no effect and 100 is complete control, read-out: Plant response rating, Velvetleaf
  pest or weed control at 125 g/ha: 60%
[1]; pre-emergence, Preemergence, 500 g ai/ha, 0 to 100 scale (0 no effect, 100 complete control), read-out: Plant response rating, Velvetleaf
  pest or weed control at 500 g/ha: 70%
[2]; [10]
  Plant response rating, Crabgrass, Large: 20
[2]; [11]
  Plant response rating, Crabgrass, Large: 45
[2]; [12]
  Plant response rating, Crabgrass, Large: 65
[2]; [13]
  Plant response rating, Crabgrass, Large: 85
[2]; [14]
  Plant response rating, Crabgrass, Large: 98
[2]; [15]
  Plant response rating, Crabgrass, Large: 100
[2]; [16]
  Plant response rating, Crabgrass, Large: 100
[2]; [17]
  Plant response rating, Crabgrass, Large: 100
[3]; [10]
  Plant response rating, Blackgrass: 40
[3]; [11]
  Plant response rating, Blackgrass: 60
[3]; [12]
  Plant response rating, Blackgrass: 70
[3]; [13]
  Plant response rating, Blackgrass: 80
[3]; [14]
  Plant response rating, Blackgrass: 90
[3]; Preemergence, 62 g ai/ha, scale 0 to 100, 0 no effect, 100 complete control
  Plant response rating, Blackgrass: 90
[3]; [16]
  Plant response rating, Blackgrass: 90
[3]; [17]
  Plant response rating, Blackgrass: 90
[4]; [10]
  Plant response rating, Pigweed: 85
[4]; [11]
  Plant response rating, Pigweed: 98
[4]; [12]
  Plant response rating, Pigweed: 98
[4]; [13]
  Plant response rating, Pigweed: 100
[4]; [14]
  Plant response rating, Pigweed: 100
[4]; [15]
  Plant response rating, Pigweed: 100
[4]; [16]
  Plant response rating, Pigweed: 100
[4]; [17]
  Plant response rating, Pigweed: 100
Corn (Zea mays); Zea mays, post-emergence, 240 h, Postemergence, 125 g ai/ha, 0 to 100 scale, 0 is no effect, 100 is complete control, read-out: Corn plant response rating
  plant injury at 125 g/ha: 30%
Corn (Zea mays); Zea mays, post-emergence, 240 h, Postemergence, 500 g ai/ha, visual rating on 0 to 100 scale (0 no effect, 100 complete control), approximately ten days, read-out: Corn plant response rating
  plant injury at 500 g/ha: 40%
Corn (Zea mays); Zea mays, pre-emergence, 240 h, Preemergence, 125 g ai/ha, 0 to 100 scale where 0 is no effect and 100 is complete control
  Corn plant response rating (crop injury, 0 = no effect, 100 = complete kill) at 125 g/ha: 50%
Corn (Zea mays); Zea mays, pre-emergence, 240 h, Preemergence, 500 g ai/ha, 0 to 100 scale (0 no effect, 100 complete control)
  Corn plant response rating (crop injury, 0 = no effect, 100 = complete kill) at 500 g/ha: 60%
[5]; [10]
  Plant response rating, Ryegrass, Italian: 5
[5]; [11]
  Plant response rating, Ryegrass, Italian: 15
[5]; [12]
  Plant response rating, Ryegrass, Italian: 30
[5]; [13]
  Plant response rating, Ryegrass, Italian: 60
[5]; [14]
  Plant response rating, Ryegrass, Italian: 60
[5]; [15]
  Plant response rating, Ryegrass, Italian: 90
[5]; [16]
  Plant response rating, Ryegrass, Italian: 90
[5]; [17]
  Plant response rating, Ryegrass, Italian: 95
[6]; [10]
  Plant response rating, Galium: 60
[6]; [11]
  Plant response rating, Galium: 85
[6]; [12]
  Plant response rating, Galium: 90
[6]; [13]
  Plant response rating, Galium: 90
[6]; [14]
  Plant response rating, Galium: 85
[6]; [15]
  Plant response rating, Galium: 100
[6]; [16]
  Plant response rating, Galium: 100
[6]; [17]
  Plant response rating, Galium: 100
[7]; [10]
  Plant response rating, Foxtail, Giant: 0
[7]; [11]
  Plant response rating, Foxtail, Giant: 20
[7]; [12]
  Plant response rating, Foxtail, Giant: 30
[7]; [13]
  Plant response rating, Foxtail, Giant: 65
[7]; [14]
  Plant response rating, Foxtail, Giant: 95
[7]; [15]
  Plant response rating, Foxtail, Giant: 98
[7]; [16]
  Plant response rating, Foxtail, Giant: 98
[7]; [17]
  Plant response rating, Foxtail, Giant: 98
Soybean (Glycine max); [10]
  Plant response rating, Soybean: 20
Soybean (Glycine max); [11]
  Plant response rating, Soybean: 40
Soybean (Glycine max); [12]
  Plant response rating, Soybean: 70
Soybean (Glycine max); [13]
  Plant response rating, Soybean: 75
Soybean (Glycine max); [14]
  Plant response rating, Soybean: 0
Soybean (Glycine max); [15]
  Plant response rating, Soybean: 0
Soybean (Glycine max); [16]
  Plant response rating, Soybean: 10
Soybean (Glycine max); [17]
  Plant response rating, Soybean: 40
[8]; [10]
  Plant response rating, Ragweed: 40
[8]; [11]
  Plant response rating, Ragweed: 40
[8]; [12]
  Plant response rating, Ragweed: 45
[8]; [13]
  Plant response rating, Ragweed: 45
[8]; [14]
  Plant response rating, Ragweed: 0
[8]; [15]
  Plant response rating, Ragweed: 0
[8]; [16]
  Plant response rating, Ragweed: 0
[8]; [17]
  Plant response rating, Ragweed: 55
Kochia (Kochia scoparia); [10]
  Plant response rating, Kochia: 95
Kochia (Kochia scoparia); [11]
  Plant response rating, Kochia: 95
Kochia (Kochia scoparia); [12]
  Plant response rating, Kochia: 98
Kochia (Kochia scoparia); [13]
  Plant response rating, Kochia: 98
Kochia (Kochia scoparia); [14]
  Plant response rating, Kochia: 5
Kochia (Kochia scoparia); [15]
  Plant response rating, Kochia: 90
Kochia (Kochia scoparia); [16]
  Plant response rating, Kochia: 90
Kochia (Kochia scoparia); [17]
  Plant response rating, Kochia: 95
[9]; post-emergence, Postemergence, 125 g ai/ha, 0 to 100 scale, 0 is no effect, 100 is complete control, read-out: Crabgrass, Large plant response rating
  pest or weed control at 125 g/ha: 90%
[9]; post-emergence, Postemergence, 500 g ai/ha, visual rating on 0 to 100 scale (0 no effect, 100 complete control), approximately ten days, read-out: Crabgrass, Large plant response rating
  pest or weed control at 500 g/ha: 90%
[9]; pre-emergence, Preemergence, 125 g ai/ha, 0 to 100 scale where 0 is no effect and 100 is complete control, read-out: Plant response rating, Crabgrass, Large
  pest or weed control at 125 g/ha: 100%
[9]; pre-emergence, Preemergence, 500 g ai/ha, 0 to 100 scale (0 no effect, 100 complete control), read-out: Plant response rating, Crabgrass, Large
  pest or weed control at 500 g/ha: 100%

## Cc1nn(-c2ccnc(C(F)(F)F)c2)nc1Cc1ccnc(C(F)(F)F)c1 [Compound 137]
[1]; [18]
  Plant response rating, Velvetleaf: 80
[1]; [19]
  Velvetleaf plant response rating: 100
[1]; [20]
  Plant response rating, Velvetleaf: 20
[1]; [21]
  Plant response rating, Velvetleaf: 20
[2]; [10]
  Plant response rating, Crabgrass, Large: 15
[2]; [11]
  Plant response rating, Crabgrass, Large: 40
[2]; [12]
  Plant response rating, Crabgrass, Large: 40
[2]; [13]
  Plant response rating, Crabgrass, Large: 65
[3]; [10]
  Plant response rating, Blackgrass: 10
[3]; [11]
  Plant response rating, Blackgrass: 30
[3]; [12]
  Plant response rating, Blackgrass: 35
[3]; [13]
  Plant response rating, Blackgrass: 60
[4]; [10]
  Plant response rating, Pigweed: 98
[4]; [11]
  Plant response rating, Pigweed: 100
[4]; [12]
  Plant response rating, Pigweed: 100
[4]; [13]
  Plant response rating, Pigweed: 100
Corn (Zea mays); [18]
  Corn plant response rating: 20
Corn (Zea mays); [19]
  Corn plant response rating: 30
Corn (Zea mays); [20]
  Plant response rating, Corn: 0
Corn (Zea mays); [21]
  Plant response rating, Corn: 0
[5]; [10]
  Plant response rating, Ryegrass, Italian: 35
[5]; [11]
  Plant response rating, Ryegrass, Italian: 55
[5]; [12]
  Plant response rating, Ryegrass, Italian: 65
[5]; [13]
  Plant response rating, Ryegrass, Italian: 90
[6]; [10]
  Plant response rating, Galium: 45
[6]; [11]
  Plant response rating, Galium: 70
[6]; [12]
  Plant response rating, Galium: 70
[6]; [13]
  Plant response rating, Galium: 70
[7]; [10]
  Plant response rating, Foxtail, Giant: 10
[7]; [11]
  Plant response rating, Foxtail, Giant: 40
[7]; [13]
  Plant response rating, Foxtail, Giant: 50
Soybean (Glycine max); [10]
  Plant response rating, Soybean: 40
Soybean (Glycine max); [11]
  Plant response rating, Soybean: 55
Soybean (Glycine max); [12]
  Plant response rating, Soybean: 55
Soybean (Glycine max); [13]
  Plant response rating, Soybean: 60
[8]; [10]
  Plant response rating, Ragweed: 65
[8]; [12]
  Plant response rating, Ragweed: 75
[8]; [13]
  Plant response rating, Ragweed: 85
Kochia (Kochia scoparia); [10]
  Plant response rating, Kochia: 90
Kochia (Kochia scoparia); [11]
  Plant response rating, Kochia: 90
Kochia (Kochia scoparia); [12]
  Plant response rating, Kochia: 90
Kochia (Kochia scoparia); [13]
  Plant response rating, Kochia: 90
[9]; [18]
  Crabgrass, Large plant response rating: 90
[9]; [19]
  Crabgrass, Large plant response rating: 90
[9]; [20]
  Plant response rating, Crabgrass, Large: 90
[9]; [21]
  Plant response rating, Crabgrass, Large: 90
